Columns and labels:
[1] = tested on: IL-17A-induced G-CSF production in human normal keratinocyte (NHK); experiment: NHK Assay: IL-17A-induced G-CSF production in human normal keratinocytes; assay type: cell-based; details: Homo sapiens, Keratinocyte, 24 h, adult normal human keratinocytes, IL-17A 5 ng/mL, simple average if tested more than once
How it was run: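 Titrated compound plus recombinant human IL-17A (pre-incubated 1 h, rt) were applied to adult human keratinocytes at 5 ng/mL cytokine, 0.2% DMSO. Cultures ran 24 h at 37° C, and supernatant G-CSF was measured by HTRF to derive IC50.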

[2] = biological target: IL-17A(FLAG-Tagged): IL-17RA(His-Tagged) (Homo sapiens, UniProt Q16552, K93Q); experiment: IL-17A(FLAG-Tagged): IL-17RA(His-Tagged) Binding Disruption Eu-HTRF Assay; details: IL-17A/IL-17RA binding disruption, simple average if tested more than once
UniProt Q16552, sequence (Q16552 with tags, fused parts or gaps K93Q): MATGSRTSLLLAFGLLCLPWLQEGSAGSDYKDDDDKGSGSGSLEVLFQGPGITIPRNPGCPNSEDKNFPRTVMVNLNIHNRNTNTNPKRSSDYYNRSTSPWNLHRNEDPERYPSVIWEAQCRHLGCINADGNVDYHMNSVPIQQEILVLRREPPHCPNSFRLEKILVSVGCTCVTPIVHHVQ
How it was run: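 IC50 comes from a one-site competition fit of the HTRF 665/620 nm ratio. Compound dilutions (2-fold, 22 points) were held 1 h rt with FLAG-tagged IL-17A dimer, then His-tagged IL-17RA plus Eu-cryptate anti-FLAG and D2 anti-His antibodies were added for 2 h rt.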

Row | SMILES | IC50 [1] | IC50 [2]
1 | COc1nonc1C(=O)N[C@H](c1cn2ncc([C@H](NC(=O)CC3CC(F)(F)C3)C3CC3)cc2n1)C1CCC(F)(F)CC1 [Example 409, N—((S)-(7-((R)-Cyclopropyl(2-(3,3-difluorocyclobutyl)acetamido)methyl)imidazo[1,2-b]pyridazin-2-yl)(4,4-difluorocyclohexyl)methyl)-4-methoxy-1,2,5-oxadiazole-3-carboxamide] | 140 nM | 85 nM
2 | CC(C)(O)c1nonc1C(=O)N[C@H](c1cn2ncc([C@H](NC(=O)CC3CC(F)(F)C3)C3CC3)cc2n1)C1CCC(F)(F)CC1 [Example 410, N—((S)-(7-((R)-Cyclopropyl(2-(3,3-difluorocyclobutyl)acetamido)methyl)imidazo[1,2-b]pyridazin-2-yl)(4,4-difluorocyclohexyl)methyl)-4-(2-hydroxypropan-2-yl)-1,2,5-oxadiazole-3-carboxamide] | 230 nM | 120 nM
3 | O=C(N[C@H](c1cn2ncc([C@H](NC(=O)C(F)(F)CC3CC3)C3CC3)cc2n1)C1CCC(F)(F)CC1)c1nonc1C1CC1 [Example 411, 4-Cyclopropyl-N—((S)-(7-((R)-cyclopropyl(3-cyclopropyl-2,2-difluoropropanamido)methyl)imidazo[1,2-b]pyridazin-2-yl)(4,4-difluorocyclohexyl)methyl)-1,2,5-oxadiazole-3-carboxamide] | 49 nM | 78 nM
4 | O=C(CC1CC(F)(F)C1)N[C@@H](c1cnn2cc([C@@H](NC(=O)c3nonc3O)C3CCC(F)(F)CC3)nc2c1)C1CC1 [Example 412, N—((S)-(7-((R)-Cyclopropyl(2-(3,3-difluorocyclobutyl)acetamido)methyl)imidazo[1,2-b]pyridazin-2-yl)(4,4-difluorocyclohexyl)methyl)-4-hydroxy-1,2,5-oxadiazole-3-carboxamide] | > 20000 nM | > 50000 nM
5 | O=C(CC1CC(F)(F)C1)N[C@@H](c1cnn2cc([C@@H](NC(=O)c3nonc3C(F)F)C3CCC(F)(F)CC3)nc2c1)C1CC1 [Example 413, N—((S)-(7-((R)-Cyclopropyl(2-(3,3-difluorocyclobutyl)acetamido)methyl)imidazo[1,2-b]pyridazin-2-yl)(4,4-difluorocyclohexyl)methyl)-4-(difluoromethyl)-1,2,5-oxadiazole-3-carboxamide] | 170 nM | 61 nM
6 | O=C(CCC(F)(F)F)N[C@@H](c1cnn2cc([C@@H](NC(=O)c3cncc(C4CC4)c3)C3CCC(F)(F)CC3)nc2c1)C1CC1 [Example 414, 5-Cyclopropyl-N—((S)-(7-((R)-cyclopropyl(4,4,4-trifluorobutanamido)methyl)imidazo[1,2-b]pyridazin-2-yl)(4,4-difluorocyclohexyl)methyl)nicotinamide] | 730 nM | 57 nM
7 | CC(C)c1cncc(C(=O)N[C@H](c2cn3ncc([C@H](NC(=O)CCC(F)(F)F)C4CC4)cc3n2)C2CCC(F)(F)CC2)c1 [Example 415, N—((S)-(7-((R)-Cyclopropyl(4,4,4-trifluorobutanamido)methyl)imidazo[1,2-b]pyridazin-2-yl)(4,4-difluorocyclohexyl)methyl)-5-isopropylnicotinamide] | 500 nM | 73 nM
8 | O=C(CCC(F)(F)F)N[C@@H](c1cnn2cc([C@@H](NC(=O)c3cncc(C4CCC4)c3)C3CCC(F)(F)CC3)nc2c1)C1CC1 [Example 416, 5-Cyclobutyl-N—((S)-(7-((R)-cyclopropyl(4,4,4-trifluorobutanamido)methyl)imidazo[1,2-b]pyridazin-2-yl)(4,4-difluorocyclohexyl)methyl)nicotinamide] | 550 nM | 62 nM
9 | O=C(CCC(F)(F)F)N[C@@H](c1cnn2cc([C@@H](NC(=O)c3cncc(OC(F)F)c3)C3CCC(F)(F)CC3)nc2c1)C1CC1 [Example 417, N—((S)-(7-((R)-Cyclopropyl(4,4,4-trifluorobutanamido)methyl)imidazo[1,2-b]pyridazin-2-yl)(4,4-difluorocyclohexyl)methyl)-5-(difluoromethoxy)nicotinamide] | 410 nM | 68 nM
10 | Cc1cc(C(=O)N[C@H](c2cn3ncc([C@H](NC(=O)CCC(F)(F)F)C4CC4)cc3n2)C2CCC(F)(F)CC2)cnn1 [Example 418, N—((S)-(7-((R)-Cyclopropyl(4,4,4-trifluorobutanamido)methyl)imidazo[1,2-b]pyridazin-2-yl)(4,4-difluorocyclohexyl)methyl)-6-methylpyridazine-4-carboxamide] | > 20000 nM | 4600 nM
11 | O=C(CCC(F)(F)F)N[C@@H](c1cnn2cc([C@@H](NC(=O)c3ncccc3OCC(F)(F)F)C3CCC(F)(F)CC3)nc2c1)C1CC1 [Example 419, N—((S)-(7-((R)-Cyclopropyl(4,4,4-trifluorobutanamido)methyl)imidazo[1,2-b]pyridazin-2-yl)(4,4-difluorocyclohexyl)methyl)-3-(2,2,2-trifluoroethoxy)picolinamide] | > 20000 nM | 1300 nM
12 | N#Cc1cncc(C(=O)N[C@H](c2cn3ncc([C@H](NC(=O)CCC(F)(F)F)C4CC4)cc3n2)C2CCC(F)(F)CC2)c1 [Example 450, 5-Cyano-N—((S)-(7-((R)-cyclopropyl(4,4,4-trifluorobutanamido)methyl)imidazo[1,2-b]pyridazin-2-yl)(4,4-difluorocyclohexyl)methyl)nicotinamide] | 1700 nM | 810 nM
13 | O=C(CCC(F)(F)F)N[C@@H](c1cnn2cc([C@@H](NC(=O)c3cncc(F)c3)C3CCC(F)(F)CC3)nc2c1)C1CC1 [Example 451, N—((S)-(7-((R)-Cyclopropyl(4,4,4-trifluorobutanamido)methyl)imidazo[1,2-b]pyridazin-2-yl)(4,4-difluorocyclohexyl)methyl)-5-fluoronicotinamide] | 830 nM | 120 nM
14 | CCc1cncc(C(=O)N[C@H](c2cn3ncc([C@H](NC(=O)CCC(F)(F)F)C4CC4)cc3n2)C2CCC(F)(F)CC2)c1 [Example 452, N—((S)-(7-((R)-Cyclopropyl(4,4,4-trifluorobutanamido)methyl)imidazo[1,2-b]pyridazin-2-yl)(4,4-difluorocyclohexyl)methyl)-5-ethylnicotinamide] | 570 nM | 100 nM
15 | CCc1ccnc(C(=O)N[C@H](c2cn3ncc([C@H](NC(=O)CCC(F)(F)F)C4CC4)cc3n2)C2CCC(F)(F)CC2)c1 [Example 453, N—((S)-(7-((R)-Cyclopropyl(4,4,4-trifluorobutanamido)methyl)imidazo[1,2-b]pyridazin-2-yl)(4,4-difluorocyclohexyl)methyl)-4-ethylpicolinamide] | 3900 nM | 150 nM
16 | Cc1cncc(C(=O)N[C@H](c2cn3ncc([C@H](NC(=O)CCC(F)(F)F)C4CC4)cc3n2)C2CCC(F)(F)CC2)c1 [Example 454, N—((S)-(7-((R)-Cyclopropyl(4,4,4-trifluorobutanamido)methyl)imidazo[1,2-b]pyridazin-2-yl)(4,4-difluorocyclohexyl)methyl)-5-methylnicotinamide] | 3400 nM | 320 nM
17 | O=C(CCC(F)(F)F)N[C@@H](c1cnn2cc([C@@H](NC(=O)c3cncc(C(F)F)c3)C3CCC(F)(F)CC3)nc2c1)C1CC1 [Example 455, N—((S)-(7-((R)-Cyclopropyl(4,4,4-trifluorobutanamido)methyl)imidazo[1,2-b]pyridazin-2-yl)(4,4-difluorocyclohexyl)methyl)-5-(difluoromethyl)nicotinamide] | 850 nM | 130 nM

From patent US11702422B2, “Imidazopyridazines as modulators of IL-17” (Janssen Pharmaceutica NV, priority 2020, dated 2023)
